Experimental data reported in patent US20220324925A1, “THERAPEUTIC PEPTIDES” (COHBAR, INC., priority 2019, published 2022).
Where no end group is shown, it is not given here. [ ]: non-standard residue; d: D form.

Assays:
MDA-MB-231 cells [1] = assay: Cell viability, MTS Assay in MDA-MB-231 Cells; conditions: for MTS Assay in MDA-MB-231 Cells, Percent of Control Activity: 72 hours, relative to DMSO control, concentration not given
3T3-L1 adipocytes = assay: Free Fatty Acid Levels in cultured 3T3-L1 Adipocytes; conditions: for Free Fatty Acid Levels in 3T3-L1 Adipocytes Expressed as a Percent Isoproterenol Control, Percent of Control Value: test peptides 25 μM, 20-22 hours then isoproterenol (1 nM) 3 hours
Experimental: Following 12-15 days' differentiation, test peptides were added to a final concentration of 25 μM and incubated for 20-22 hours in Adipocyte Maintenance Medium. After 20-22 hours, isoproterenol (1 nM) was added to all wells except untreated controls and test peptides were replenished. Cells were incubated for a further 3 hours in Assay Buffer (Zen-Bio). Free fatty acid concentrations in the media were determined using a Free Fatty Acid Assay Kit (Zen-Bio) according to the manufacturer's instructions using a plate reader (540 nm). Absorbance values were corrected for untreated background and expressed relative to isoproterenol treated cells. Treatment with isoproterenol (1 nM) alone was used as the free fatty acid level stimulatory control. The relative standard deviation of the isoproterenol control was <10%.

MDA-MB-231 cells [2] = assay: Caspase 3/7 Activity (Caspase-Glo 3/7 Assay) in MDA-MB-231 cells; assay type: cell-based, human; conditions: test peptides 10 μM, 18 hours, relative to DMSO control
Experimental: The effect of the peptides on cell death/survival can be assessed using a caspase-3 assay. […] MDA-MB-231 cells were grown in DMEM Medium supplemented with 10% FBS. […] Luminescence for each sample well on the plate was measured by Envision 2104 Multilabel Reader (PerkinElmer, Santa Clara, Calif.). Activity was calculated relative to DMSO control.

MCF-7 cells = assay: Cell viability, MTS Assay in MCF-7 Cells; conditions: test peptides 10 μM, 72 hours, relative to DMSO control

Molecule	Free Fatty Acid Levels in 3T3-L1 Adipocytes Expressed as a Percent Isoproterenol Control, Percent of Control Value (3T3-L1 adipocytes) [%]	other results
CN[C@@H]1C[C@H]2O[C@@](C)([C@@H]1OC)n1c3ccccc3c3c4c(c5c6ccccc6n2c5c31)C(=O)NC4 [staurosporine, reference compound]	–	Cell viability, % of the DMSO control value (MDA-MB-231 cells [1]; Staurosporine 10 uM, MDA-MB-231 cells, positive control): 3%
13 (VSVLESALGRTRV; not fully specified (residue 7)) [compound 13]	123	–
insulin [reference compound]	–	Free fatty acid levels, % of the isoproterenol control value (3T3-L1 adipocytes; insulin 100 nM, positive control): < 5%
17 (MRCERYTSIPRSEMVNASIIFM) [compound 17]	108	MTS Assay in MDA-MB-231 Cells, Percent of Control Activity (MDA-MB-231 cells [1]): 79%; Caspase 3/7 Activity in MDA-MB-231 Cells, Percent of Control Activity (MDA-MB-231 cells [2]): 51%; MTS Assay in MCF-7 Cells, Percent of Control Activity (MCF-7 cells): 54%
3 (PIVLELIPLKIFEIGPVFTL) [compound 3]	68	–
18 (RCERYTSIPRSEMVNASIIFM) [compound 18]	96	–
9 (SVWKVAVQTFNCYYYVLQAL; not fully specified (residues 6, 19)) [compound 9]	134	–
19 (RCERYTSIPRSEMVN[dA]SIIF) [compound 19]	78	–
7 (MSVWKVAVQTFNCYYYVLQALIN) [compound 7]	128	MTS Assay in MDA-MB-231 Cells, Percent of Control Activity (MDA-MB-231 cells [1]): 83%; Caspase 3/7 Activity in MDA-MB-231 Cells, Percent of Control Activity (MDA-MB-231 cells [2]): 54%; MTS Assay in MCF-7 Cells, Percent of Control Activity (MCF-7 cells): 64%
14 (VSVLES[dA]LGRTRV) [compound 14]	94	–
5 (P[dA]VLELIPLKIFEI[dA]PVFT) [compound 5]	84	–
2 (PIVLELIPLKIFEIGPVFTL) [compound 2]	92	MTS Assay in MDA-MB-231 Cells, Percent of Control Activity (MDA-MB-231 cells [1]): 78%; Caspase 3/7 Activity in MDA-MB-231 Cells, Percent of Control Activity (MDA-MB-231 cells [2]): 99%; MTS Assay in MCF-7 Cells, Percent of Control Activity (MCF-7 cells): 71%
10 (SVWKV[dA]VQTFNCYYYVLQ[dA]L) [compound 10]	46	–
20 (R[dA]ERYTSIPRSEMVN[dA]SI[dA]F) [compound 20]	96	–
15 (VSVLES[dA]LGRTR[dA]) [compound 15]	126	–
8 (SVWKVAVQTFNCYYYVLQALIN) [compound 8]	117	–
12 (MVSVLESALGRTRV) [compound 12]	124	MTS Assay in MDA-MB-231 Cells, Percent of Control Activity (MDA-MB-231 cells [1]): 74%; Caspase 3/7 Activity in MDA-MB-231 Cells, Percent of Control Activity (MDA-MB-231 cells [2]): 44%; MTS Assay in MCF-7 Cells, Percent of Control Activity (MCF-7 cells): 32%
